Assay results taken from the NIST ThermoML archive (doi:10.1016/j.jct.2015.02.007).
Numbers after ± are expanded uncertainties.

How the values were obtained:
[1] = 100 kPa, Liquid; for mass density: Vibrating tube method
[2] = xn = mol fraction of the nth substance listed; conditions: 100 kPa, Liquid, x2 = 0; for mass density: Vibrating tube method

Row | SMILES | mass density ([1]; 278.15 K) [kg/m3] | mass density ([1]; 283.15 K) [kg/m3] | speed of sound ([1]; 318.15 K, Pulse-echo method) [m/s] | mass density ([1]; 323.15 K) [kg/m3] | mass density ([1]; 328.15 K) [kg/m3] | mass density ([1]; 333.15 K) [kg/m3] | mass density ([2]; 278.15 K) [kg/m3] | mass density ([2]; 283.15 K) [kg/m3] | speed of sound ([2]; 318.15 K, Pulse-echo method) [m/s] | mass density ([2]; 323.15 K) [kg/m3] | mass density ([2]; 328.15 K) [kg/m3] | mass density ([2]; 333.15 K) [kg/m3]
1 | O [water] | 999.965 ± 0.11 | 999.698 ± 0.11 | 1536.7 ± 0.99 | 988.027 ± 0.11 | 985.682 ± 0.11 | 983.186 ± 0.11 |  |  |  |  |  | 
2 | O [water] + OCCOCCOCCOCCO |  |  |  |  |  |  | 999.965 ± 0.11 | 999.698 ± 0.11 | 1536.7 ± 0.99 | 988.027 ± 0.11 | 985.682 ± 0.11 | 983.186 ± 0.11
